What all share (format): cell-based
Data set [1] relates to SK-MEL-28 melanoma cells. Kind of data set: Dose-response growth inhibition (GI50) of select compounds. Particulars: Homo sapiens, SK-MEL-28, 48 h, two days. The method, then: (§1) An example of the dose response curve for compound 30h and the BRaf inhibitor PLX4032 for inhibiting the growth of melanoma cell lines is shown in FIG. 14. […] A summary of GI50 values for select compounds along with comparisons to know ERK pathway inhibitors in various cell lines is shown in Table 13. […] First, thiazolidinedione compounds have been identified to be selective inhibitors of cancer cell lines containing activated ERK signaling. Second, changes in the 4-ethoxyphenyl component of the parent compound 76 improve selectivity and potency for inhibiting melanoma cell growth. Third, compound 30h is a potent inhibitor of melanoma cell lines that have become resistant to the clinically relevant BRaf and MEK inhibitors. […] Lastly, 30h is as potent as the ATP-competitive pyrazolopyridazinamine ERK inhibitor (FR180204) in preventing melanoma cell proliferation and provides an alternative non-ATP-dependent approach to target cancer cells that are dependent on active ERK signaling.
(§2) Melanoma cells (A375, SK-MEL-28, and RPMI7951) were seeded at a density of 5,000 per well in 96-well plate. After overnight incubation, cells were treated with varying doses of PLX4032 (A) or 31h (B) for two days. Cell viability was determined by the addition of Cell Titer-Blue Reagent (20 μL/well) followed by 2 hours of incubation at 37° C. after which fluorescence was recorded (555/585 nm). Cell viability was expressed as percentage of vehicle control and data represent the average of three individual experiments.

The subject of data set [2] is A375 melanoma cells. The description is as above. The conditions noted are these: Homo sapiens, A-375, 48 h, two days. The method, then:
as §1, §2

Another data set deals with RPMI7951 melanoma cells. The data set is described as above. The conditions noted are these: Homo sapiens, RPMI-7951, 48 h, two days. The method, then:
as §1, §2

Data set [3] relates to serum response element (SRE). The data set can be described thus: SRE promoter luciferase assay, HeLa cells (Example 4). The method, then: (§3) HeLa cells were seeded in 24-well plates (4×10^4 cells/well) and incubated 18 hours prior to achieve ˜60-70% confluent. Cells were transfected with activator protein-1 (pAP1(PMA)-TA-Luc; Clontech) or the serum response element (pGL4.33-SRE; Promega) luciferase reporter plasmids (250 ng/well) using Lipofectamine™ (Invitrogen). After 16 hours, cells were treated with increasing amount of compounds as indicated for 20 minutes, followed by stimulation with EGF (25 ng/mL) for 4.5 hr. The luciferase activity in the cell extracts was determined with a Dual Luciferase Assay System (Promega) according to the manufacturer's instructions. Luciferase activities were monitored with a Lumat LB 9507 luminometer (Berthold Technology) and data were normalized to the amount of protein in each sample.

The test system of data set [4] is SK-MEL-28 melanoma cells. Kind of data set: Cell proliferation WST-1 assay, single dose (Example 4). The conditions noted are these: 100 μM, 48 hours. The procedure, abridged: (§4)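 Proliferation is measured by WST-1 reduction: after roughly 5000 cells per well rest 16-20 hours, they receive compound for 48 hours, and the signal is normalized to DMSO control.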
On the technique in general: Tetrazolium assays rely on reduction of a dye to a coloured formazan, in cell work by metabolically active cells.

In the next data set the test system is RPMI-7951 melanoma cells. The data set is described as above. The conditions noted are these: 100 μM, 48 hours. An outline of the steps:
as §4

The subject of data set [5] is Jurkat T-cell leukemia cells. The description is as above. Particulars: 100 μM, 48 hours. An outline of the steps:
as §4

Data set [6] deals with HeLa cervical carcinoma cells. The data set is described as above. The conditions noted are these: 100 μM, 48 hours. The procedure, abridged:
as §4

A further data set has as its system HL-60 leukemic cells. The data set is described as above. Particulars: 100 μM, 48 hours. An outline of the steps:
as §4

Data set [7] has as its system A375 melanoma cells. Described as above. Particulars: 100 μM, 48 hours. The procedure, abridged: as §4
In a further data set the test system is Jurkat cells. The data set can be described thus: Dose-response growth inhibition (GI50) of select compounds. The conditions noted are these: Homo sapiens, Jurkat.
In the next data set the test system is HeLa cells. The data set is described as above. The conditions noted are these: Homo sapiens, HeLa.
Data set [8] has as its system activator protein-1 (AP-1) promoter. Kind of data set: AP-1 promoter luciferase assay, HeLa cells (Example 4). The method, then:
as §3

By GI50 is commonly meant the concentration that inhibits growth by half. Usually IC50 stands for the midpoint of a concentration-inhibition curve. Consider `CC(C)COc1ccc(/C=C2\SC(=O)N(CCN)C2=O)cc1` [Compound 30g, (Z)-3-(2-aminoethyl)-5-(4-isobutoxybenzylidene)thiazolidine-2,4-dione], for which the GI50 is 36 µM in the data set with SK-MEL-28 melanoma cells [1]; 22 µM with A375 melanoma cells [2]; 11 µM in the data set with RPMI7951 melanoma cells; more than 100 µM in the data set with Jurkat cells; approximately 100 µM in the data set with HeLa cells. The IC50 in data set [3] (Homo sapiens, EGF 25 ng/mL, read-out: estimated IC50 SRE promoter activity) is not above 5 µM; in data set [8] (Homo sapiens, EGF 25 ng/mL, read-out: estimated IC50 AP-1 promoter activity), not above 5 µM. In the data set on SK-MEL-28 melanoma cells [4], the “Cell Viability (% of Vehicle) SK-MEL-28” value is listed as 0.8 ± 0.2 % of Vehicle. Moreover, the “Cell Viability (% of Vehicle) RPMI-7951” value with RPMI-7951 melanoma cells is recorded as 0.3 ± 0.04 % of Vehicle. Further, the “Cell Viability (% of Vehicle) Jurkat” value in data set [5] is on record as 91 ± 8 % of Vehicle. Also, the “Cell Viability (% of Vehicle) HeLa” value in [6] was 48 ± 3 % of Vehicle. The “Cell Viability (% of Vehicle) HL-60” value in the data set on HL-60 leukemic cells is reported as 5.0 ± 2 % of Vehicle. Also, in the data set on A375 melanoma cells [7], the “Cell Viability (% of Vehicle) A375” value was 1.8 ± 0.5 % of Vehicle.
Turning to `NCCN1C(=O)S/C(=C\c2ccc(OCc3ccccc3)cc2)C1=O` [Compound 30h, (Z)-3-(2-aminoethyl)-5-(4-(benzyloxy)benzylidene)thiazolidine-2,4-dione], the GI50 in the data set on SK-MEL-28 melanoma cells [1] was 9 µM; in the data set with A375 melanoma cells [2], 7 µM; with RPMI7951 melanoma cells, 7 µM; with Jurkat cells it was more than 100 µM; in the data set with HeLa cells it was more than 100 µM. Also, in data set [3] (EGF), the “inhibition of ERK-mediated SRE promoter activity” value was “less potent than compounds 76 and 30g at lower concentrations”. Also, in the data set with SK-MEL-28 melanoma cells [4], the “Cell Viability (% of Vehicle) SK-MEL-28” value was 1.0 ± 1 % of Vehicle. Also, the “Cell Viability (% of Vehicle) RPMI-7951” value with RPMI-7951 melanoma cells is reported as 0.2 ± 0.04 % of Vehicle. In addition, in data set [5], the “Cell Viability (% of Vehicle) Jurkat” value is 87 ± 5 % of Vehicle. Besides, in data set [6], the “Cell Viability (% of Vehicle) HeLa” value is 59 ± 3 % of Vehicle. Moreover, the “Cell Viability (% of Vehicle) HL-60” value with HL-60 leukemic cells was 5.2 ± 2 % of Vehicle. The “Cell Viability (% of Vehicle) A375” value with A375 melanoma cells [7] is 0.6 ± 0.4 % of Vehicle. The “inhibition of ERK-mediated AP-1 promoter activity” value in data set [8] (EGF) is “less potent than compounds 76 and 30g at lower concentrations”.

(Values after patent US9115122B2, “Non-ATP dependent inhibitors of extracellular signal-regulated kinase (ERK)” (UNIVERSITY OF MARYLAND, BALTIMORE, priority 2012, dated 2015).)
